Source: paper PMC12504684 (Communications Chemistry, 2025)
Like-named read-outs stand apart in the source and are kept apart here.

Columns and labels:
468 kinases [1] = conditions: concentration of 100 nM; cited from earlier work
468 kinases [2] = type: binding; conditions: concentration of 100 nM

SMILES	number of wild-type kinases inhibited (percent control <35%) (468 kinases [1])	number of wild-type kinases inhibited (percent control <35%) (468 kinases [2])
Cc1cnc(Nc2ccc(OCCN3CCCC3)cc2)nc1Nc1cccc(S(=O)(=O)NC(C)(C)C)c1 [Fedratinib]	34	
C1=C/COCc2cc(ccc2OCCN2CCCC2)Nc2nccc(n2)-c2cccc(c2)COC/1 [Pacritinib]		55
